Test results: ChEMBL document CHEMBL1250451, “Mechanistic insights into a Ca2+-dependent family of alpha-mannosidases in a human gut symbiont” (Nat Chem Biol, 2010)

Tests used:
Format in all cases: protein assay
[1] = target: T1, Alpha-1,2-mannosidase (BT_2199) (Bacteroides thetaiotaomicron) (UniProt Q8A5N9); experiment: Activity of Bacteroides thetaiotaomicron GH92 alpha-mannosidase 2199 assessed as recovery of enzyme activity at 1 mM in presence of 7 mM Ba(2+) ions and in presence of 5 mM EDTA in 100 mM pH 7 MOPS buffer relative to enzyme activity in presence of calcium
T1 sequence (whole entry): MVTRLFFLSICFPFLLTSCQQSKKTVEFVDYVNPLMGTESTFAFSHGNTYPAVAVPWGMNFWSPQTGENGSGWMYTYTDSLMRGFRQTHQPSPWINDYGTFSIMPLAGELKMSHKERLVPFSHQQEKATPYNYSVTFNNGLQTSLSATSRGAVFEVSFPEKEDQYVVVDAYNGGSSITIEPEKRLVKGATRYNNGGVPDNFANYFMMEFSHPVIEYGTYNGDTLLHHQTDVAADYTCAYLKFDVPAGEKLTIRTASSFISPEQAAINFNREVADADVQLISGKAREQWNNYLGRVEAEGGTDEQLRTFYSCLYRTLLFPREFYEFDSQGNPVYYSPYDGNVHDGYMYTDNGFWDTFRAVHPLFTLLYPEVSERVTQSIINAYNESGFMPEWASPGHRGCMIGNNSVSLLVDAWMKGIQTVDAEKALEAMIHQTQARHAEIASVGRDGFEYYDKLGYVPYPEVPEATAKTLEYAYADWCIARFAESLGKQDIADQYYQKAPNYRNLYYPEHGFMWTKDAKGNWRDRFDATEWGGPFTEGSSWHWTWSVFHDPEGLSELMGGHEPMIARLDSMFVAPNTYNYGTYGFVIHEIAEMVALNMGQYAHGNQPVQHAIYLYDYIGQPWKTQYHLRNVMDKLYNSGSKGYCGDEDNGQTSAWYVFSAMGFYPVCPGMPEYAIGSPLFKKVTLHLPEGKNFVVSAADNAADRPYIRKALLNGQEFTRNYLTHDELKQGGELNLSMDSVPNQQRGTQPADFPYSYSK

[2] = target: T1, Alpha-1,2-mannosidase (BT_2199) (Bacteroides thetaiotaomicron); experiment: Activity of Bacteroides thetaiotaomicron GH92 alpha-mannosidase 2199 assessed as recovery of enzyme activity at 1 mM in presence of 7 mM Be(2+) ions and in presence of 5 mM EDTA in 100 mM pH 7 MOPS buffer relative to enzyme activity in presence of calcium
[3] = target: T1, Alpha-1,2-mannosidase (BT_2199) (Bacteroides thetaiotaomicron); experiment: Activity of Bacteroides thetaiotaomicron GH92 alpha-mannosidase 2199 assessed as recovery of enzyme activity at 1 mM in presence of 7 mM Zn(2+) ions and in presence of 5 mM EGTA in 100 mM pH 7 MOPS buffer relative to enzyme activity in presence of calcium
[4] = target: T1, Alpha-1,2-mannosidase (BT_2199) (Bacteroides thetaiotaomicron); experiment: Activity of Bacteroides thetaiotaomicron GH92 alpha-mannosidase 2199 assessed as recovery of enzyme activity at 1 mM in presence of 7 mM Mg(2+) ions and in presence of 5 mM EGTA in 100 mM pH 7 MOPS buffer relative to enzyme activity in presence of calcium
[5] = target: T1, Alpha-1,2-mannosidase (BT_2199) (Bacteroides thetaiotaomicron); experiment: Activity of Bacteroides thetaiotaomicron GH92 alpha-mannosidase 2199 assessed as recovery of enzyme activity at 1 mM in presence of 7 mM Ba(2+) ions and in presence of 5 mM EGTA in 100 mM pH 7 MOPS buffer relative to enzyme activity in presence of calcium
[6] = target: T1, Alpha-1,2-mannosidase (BT_2199) (Bacteroides thetaiotaomicron); experiment: Activity of Bacteroides thetaiotaomicron GH92 alpha-mannosidase 2199 assessed as recovery of enzyme activity at 1 mM in presence of 7 mM Ti(3+) ions and in presence of 5 mM EGTA in 100 mM pH 7 MOPS buffer relative to enzyme activity in presence of calcium
[7] = target: T2, Alpha-1,2-mannosidase (BT_3990) (Bacteroides thetaiotaomicron) (UniProt Q8A0N1); experiment: Activity of Bacteroides thetaiotaomicron GH92 alpha-mannosidase 3990 assessed as recovery of enzyme activity at 1 mM in presence of 7 mM Mn(2+) ions and in presence of 5 mM EDTA in 100 mM pH 7 MOPS buffer relative to enzyme activity in presence of calcium
T2 sequence (whole entry): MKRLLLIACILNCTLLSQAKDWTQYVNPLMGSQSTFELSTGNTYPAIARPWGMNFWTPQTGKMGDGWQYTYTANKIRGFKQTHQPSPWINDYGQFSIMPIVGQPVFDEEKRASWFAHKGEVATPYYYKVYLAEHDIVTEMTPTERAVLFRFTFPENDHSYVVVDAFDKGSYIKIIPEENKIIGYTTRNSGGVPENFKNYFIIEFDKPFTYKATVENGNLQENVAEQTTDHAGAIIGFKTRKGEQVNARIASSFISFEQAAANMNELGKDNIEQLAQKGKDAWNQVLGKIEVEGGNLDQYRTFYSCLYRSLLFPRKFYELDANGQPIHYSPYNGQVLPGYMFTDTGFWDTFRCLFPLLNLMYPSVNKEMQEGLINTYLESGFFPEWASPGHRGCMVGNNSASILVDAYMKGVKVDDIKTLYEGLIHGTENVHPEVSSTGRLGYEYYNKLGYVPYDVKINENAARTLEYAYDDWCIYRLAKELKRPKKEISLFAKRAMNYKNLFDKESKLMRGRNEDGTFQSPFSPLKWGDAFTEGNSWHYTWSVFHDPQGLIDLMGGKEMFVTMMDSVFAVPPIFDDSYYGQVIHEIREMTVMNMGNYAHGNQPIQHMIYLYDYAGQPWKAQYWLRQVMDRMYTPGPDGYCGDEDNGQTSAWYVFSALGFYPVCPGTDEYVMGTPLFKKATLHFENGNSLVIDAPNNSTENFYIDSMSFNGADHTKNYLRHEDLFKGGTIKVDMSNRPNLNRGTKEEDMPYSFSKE

[8] = target: T2, Alpha-1,2-mannosidase (BT_3990) (Bacteroides thetaiotaomicron); experiment: Activity of Bacteroides thetaiotaomicron GH92 alpha-mannosidase 3990 assessed as recovery of enzyme activity at 1 mM in presence of 7 mM V(3+) ions and in presence of 5 mM EDTA in 100 mM pH 7 MOPS buffer relative to enzyme activity in presence of calcium
[9] = target: T2, Alpha-1,2-mannosidase (BT_3990) (Bacteroides thetaiotaomicron); experiment: Activity of Bacteroides thetaiotaomicron GH92 alpha-mannosidase 3990 assessed as recovery of enzyme activity at 1 mM in presence of 7 mM Ca(2+) ions and in presence of 5 mM EGTA in 100 mM pH 7 MOPS buffer relative to enzyme activity in presence of calcium
[10] = target: T2, Alpha-1,2-mannosidase (BT_3990) (Bacteroides thetaiotaomicron); experiment: Activity of Bacteroides thetaiotaomicron GH92 alpha-mannosidase 3990 assessed as recovery of enzyme activity at 1 mM in presence of 7 mM Ba(2+) ions and in presence of 5 mM EGTA in 100 mM pH 7 MOPS buffer relative to enzyme activity in presence of calcium
[11] = target: T2, Alpha-1,2-mannosidase (BT_3990) (Bacteroides thetaiotaomicron); experiment: Activity of Bacteroides thetaiotaomicron GH92 alpha-mannosidase 3990 assessed as recovery of enzyme activity at 1 mM in presence of 7 mM Ti(3+) ions and in presence of 5 mM EGTA in 100 mM pH 7 MOPS buffer relative to enzyme activity in presence of calcium

Activity [1]: 0%
Activity [2]: 0%
Activity [3]: 0%
Activity [4]: 0%
Activity [5]: 0%
Activity [6]: 0%
Activity [7]: 13%
Activity [8]: 0%
Activity [9]: 100%
Activity [10]: 0%
Activity [11]: 0%
SMILES: O=[N+]([O-])c1ccc(O[C@H]2O[C@H](CO)[C@@H](O)[C@H](O)[C@@H]2O)cc1
